Drawing on patent US20150011559A1, “ANTIMICROBIAL AGENTS” (RUTGERS, THE STATE UNIVERSITY OF NEW JERSEY, priority 2012, published 2015), this text covers MIC for two compounds.

What is called MIC is the smallest concentration in the dilution series that meets the test's criterion for growth inhibition.

Converted amounts (≈) assume the structure as drawn. Like-named read-outs stand apart in the source and are kept apart here.

In experiment [1] the test system is methicillin-resistant Staphylococcus aureus (MRSA). In words: Antibacterial assay (Test C), broth microdilution MIC against MRSA. The format is cell-based. Conditions: Staphylococcus aureus, MRSA, read-out: MRSA MIC data. The procedure: (§1) Test C. Antibacterial Assay.
(§2) Antibacterial activity can be determined as per Clinical and Laboratory Standards Institute (CLSI) guidelines using a broth microdilution assay in which log-phase bacteria are grown at 37° C. in appropriate medium containing two-fold serial dilutions of a compound to yield final concentrations ranging from 256 to 0.06 μg/mL. For determination of minimal inhibitory concentration (MIC) values, bacterial growth is monitored after 24 to 48 hours by measuring optical density at 600 nm.
(§3) Using a procedure similar to Test C, representative compounds of the invention were tested against methicillin-susceptible Staphylococcus aureus (MSSA) and methicillin-resistant Staphylococcus aureus (MRSA).
For orientation: Broth dilution looks for growth in wells or tubes with falling amounts of substance.

For experiment [2], the system named is methicillin-susceptible Staphylococcus aureus (MSSA). In words: Antibacterial assay (Test C), broth microdilution MIC against MSSA. The format is cell-based. Conditions: Staphylococcus aureus, MSSA, read-out: MSSA MIC data. The procedure: as §1, §2, §3
Where [3] appears, read: minimal inhibitory concentration, broth microdilution, growth completely inhibited.

`NC(N)=NCc1cccc(-c2ccc(Br)cc2)c1` [Code 41]: the values for the MIC in experiment [1] and in experiment [2] were 8 µg/mL (≈ 26.3 µM) and 4 µg/mL (≈ 13.1 µM), respectively.

As to `CC(C)(C)c1ccc(-c2cc(CNC(=N)N)cc(-c3ccc(C(C)(C)C)cc3)c2)cc1` [Code 44], the figures for the minimal inhibitory concentration (MIC) in experiment [1] (setting [3]) and in experiment [2] (setting [3]) were 32 µg/mL (≈ 77.4 µM) and 4 µg/mL (≈ 9.67 µM), respectively.
